# Measured values published in US20250296959A1, “B7-H3 TARGETING PEPTIDES AND CONSTRUCTS THEREOF” (Mariana Oncology Inc., priority 2024, published 2025).
# Positions of bridges follow the written chain, without caps; N, C: chain ends. Non-standard residues stand in square brackets, D forms with d. Residues, ends and D or L forms follow the SMILES beside them. *: point of attachment. Ala(1-CH2CO2H-4-piperidyl) = N[C@@H](CC1CCN(CC(=O)O)CC1)C(=O)O; DOTA = O=C(O)CN1CCN(CC(=O)O)CCN(CC(=O)*)CCN(CC(=O)O)CC1; Butanoyl(4-(4-I-phenyl)) = O=C(CCCc1ccc(I)cc1)*; Trp(5-F) = N[C@@H](Cc1c[nH]c2ccc(F)cc12)C(=O)O; PEG8 = NCCOCCOCCOCCOCCOCCOCCOCCOCCC(=O)O; Ala(4-THP) = N[C@@H](CC1CCOCC1)C(=O)O; Val(3-OH) = CC(C)(O)[C@H](N)C(=O)O; hPhe = N[C@@H](CCc1ccccc1)C(=O)O; tBuAla = CC(C)(C)C[C@H](N)C(=O)O; NMeK = CN[C@@H](CCCCN)C(=O)O; Tle = CC(C)(C)[C@H](N)C(=O)O; hLeu = CC(C)CC[C@H](N)C(=O)O; αMeK = C[C@](N)(CCCCN)C(=O)O; NMeC = CN[C@@H](CS)C(=O)O; Pip = O=C(O)[C@@H]1CCCCN1; Sar = CNCC(=O)O
# Target: T1, human 4lg B7-H3 (Homo sapiens, UniProt Q5ZPR3)
# T1 sequence (Q5ZPR3 29-534): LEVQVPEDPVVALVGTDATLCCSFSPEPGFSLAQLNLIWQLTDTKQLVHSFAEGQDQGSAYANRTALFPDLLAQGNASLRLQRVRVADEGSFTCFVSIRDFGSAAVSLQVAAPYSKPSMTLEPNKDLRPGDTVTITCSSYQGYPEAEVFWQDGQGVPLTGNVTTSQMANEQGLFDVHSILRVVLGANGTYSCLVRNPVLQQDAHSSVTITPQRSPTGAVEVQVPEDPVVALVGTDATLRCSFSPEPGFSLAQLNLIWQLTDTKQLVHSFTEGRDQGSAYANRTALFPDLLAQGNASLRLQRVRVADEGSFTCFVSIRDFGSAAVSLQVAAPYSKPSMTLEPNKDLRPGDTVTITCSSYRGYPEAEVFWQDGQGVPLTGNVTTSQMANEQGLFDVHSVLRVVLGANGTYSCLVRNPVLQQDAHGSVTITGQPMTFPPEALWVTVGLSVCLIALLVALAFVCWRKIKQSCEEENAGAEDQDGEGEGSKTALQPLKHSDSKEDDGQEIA
# Experiment: Affinity determination by surface plasmon resonance (SPR) to 4Ig B7-H3
# Conditions: SPR KD—25° C., 4Ig B7-H3; 25° C. flow cell temperature
row,Compound,Kd [nM]
1,"CC(=O)N[C@@H](CCC(C)C)C(=O)N[C@@H](Cc1ccc(O)cc1)C(=O)N[C@H]1CSSC[C@@H](C(=O)N[C@@H](Cc2c[nH]c3ccc(F)cc23)C(=O)N[C@@H](Cc2ccccc2)C(=O)N[C@H](C(=O)N[C@H](CCCCNC(=O)CN2CCN(CC(=O)O)CCN(CC(=O)O)CCN(CC(=O)O)CC2)C(=O)O)[C@@H](C)O)NC(=O)[C@H](Cc2ccc(O)cc2)NC(=O)[C@H](C(C)C)NC(=O)[C@H](CC(=O)O)NC(=O)[C@H](CC2CCOCC2)NC(=O)[C@](C)(CCCCN)NC(=O)CNC(=O)[C@H](C(C)(C)C)NC1=O [compound 353, Ac-hLeu-Y-C-Tbg-G-aMeLys-ThpA-D-V-Y-C-5FW-F-Thr-dLys(DOTA)-COOH] (Ac-[hLeu]YC[Tle]G[αMeK][Ala(4-THP)]DVYC[Trp(5-F)]FT[dK](DOTA)-OH; disulfide 3-11)",100 to 300
2,"CC(=O)N[C@@H](CCC(C)C)C(=O)N[C@@H](Cc1ccc(O)cc1)C(=O)N[C@H]1CSSC[C@@H](C(=O)N[C@@H](CCc2ccccc2)C(=O)N[C@@H](Cc2ccccc2)C(=O)N[C@H](C(=O)N[C@H](CCCCNC(=O)CN2CCN(CC(=O)O)CCN(CC(=O)O)CCN(CC(=O)O)CC2)C(=O)O)[C@@H](C)O)NC(=O)[C@H](Cc2ccc(O)cc2)NC(=O)[C@H](C(C)C)NC(=O)[C@H](CC(=O)O)NC(=O)[C@H](CC2CCOCC2)NC(=O)[C@H](CCCCN)NC(=O)CNC(=O)[C@H](C(C)(C)C)NC1=O [compound 359, Ac-hLeu-Y-C-Tbg-G-K-ThpA-D-V-Y-C-hF-F-Thr-dLys(DOTA)-COOH] (Ac-[hLeu]YC[Tle]GK[Ala(4-THP)]DVYC[hPhe]FT[dK](DOTA)-OH; disulfide 3-11)",100 to 300
3,"CC(=O)N[C@@H](CCC(C)C)C(=O)N[C@@H](Cc1ccc(O)cc1)C(=O)N[C@H]1CSSC[C@@H](C(=O)N[C@@H](Cc2c[nH]c3ccc(F)cc23)C(=O)N[C@@H](CC(C)(C)C)C(=O)N[C@H](C(=O)N[C@H](CCCCNC(=O)CN2CCN(CC(=O)O)CCN(CC(=O)O)CCN(CC(=O)O)CC2)C(=O)O)[C@@H](C)O)NC(=O)[C@H](Cc2ccc(O)cc2)NC(=O)[C@H](C(C)C)NC(=O)[C@H](CC(=O)O)NC(=O)[C@H](CC2CCOCC2)NC(=O)[C@H](CCCCN)NC(=O)CNC(=O)[C@H](C(C)(C)C)NC1=O [compound 360, Ac-hLeu-Y-C-Tbg-G-K-ThpA-D-V-Y-C-5FW-tBuAla-Thr-dLys(DOTA)-COOH] (Ac-[hLeu]YC[Tle]GK[Ala(4-THP)]DVYC[Trp(5-F)][tBuAla]T[dK](DOTA)-OH; disulfide 3-11)",1 to 10
4,"CC(=O)N[C@@H](CCC(C)C)C(=O)N[C@@H](Cc1ccc(O)cc1)C(=O)N[C@H]1CSSC[C@@H](C(=O)N[C@@H](Cc2c[nH]c3ccc(F)cc23)C(=O)N[C@@H](Cc2ccccc2)C(=O)N[C@H](C(=O)N[C@H](CCCCNC(=O)CN2CCN(CC(=O)O)CCN(CC(=O)O)CCN(CC(=O)O)CC2)C(=O)O)[C@@H](C)O)NC(=O)[C@H](Cc2ccc(O)cc2)NC(=O)[C@H](C(C)C)NC(=O)[C@H](CC(=O)O)NC(=O)[C@H](CC2CCOCC2)NC(=O)[C@H](CCCCN)NC(=O)CN(C)C(=O)[C@H](C(C)C)NC1=O [compound 362, Ac-hLeu-Y-C-V-Sar-K-ThpA-D-V-Y-C-5FW-F-Thr-dLys(DOTA)-COOH] (Ac-[hLeu]YCV[Sar]K[Ala(4-THP)]DVYC[Trp(5-F)]FT[dK](DOTA)-OH; disulfide 3-11)",< 1

# The remaining lines, values ahead:
row,Kd [nM],Compound
1,10 to 100,"CC(=O)N[C@@H](CCC(C)C)C(=O)N[C@@H](Cc1ccc(O)cc1)C(=O)N[C@H]1CSSC[C@@H](C(=O)N[C@@H](Cc2c[nH]c3ccc(F)cc23)C(=O)N[C@@H](Cc2ccccc2)C(=O)N[C@H](C(=O)N[C@H](CCCCNC(=O)CN2CCN(CC(=O)O)CCN(CC(=O)O)CCN(CC(=O)O)CC2)C(=O)O)[C@@H](C)O)NC(=O)[C@H](Cc2ccc(O)cc2)NC(=O)[C@H](C(C)C)NC(=O)[C@H](CC(=O)O)NC(=O)[C@H](CC2CCOCC2)NC(=O)[C@H](CCCCN)N(C)C(=O)CNC(=O)[C@H](C(C)(C)C)NC1=O [compound 352, Ac-hLeu-Y-C-Tbg-G-NMeLys-ThpA-D-V-Y-C-5FW-F-Thr-dLys(DOTA)-COOH] (Ac-[hLeu]YC[Tle]G[NMeK][Ala(4-THP)]DVYC[Trp(5-F)]FT[dK](DOTA)-OH; disulfide 3-11)"
2,1 to 10,"CC(=O)N[C@@H](CCC(C)C)C(=O)N[C@@H](Cc1ccc(O)cc1)C(=O)N(C)[C@H]1CSSC[C@@H](C(=O)N[C@@H](Cc2c[nH]c3ccc(F)cc23)C(=O)N[C@@H](Cc2ccccc2)C(=O)N[C@H](C(=O)N[C@H](CCCCNC(=O)CN2CCN(CC(=O)O)CCN(CC(=O)O)CCN(CC(=O)O)CC2)C(=O)O)[C@@H](C)O)NC(=O)[C@H](Cc2ccc(O)cc2)NC(=O)[C@H](C(C)C)NC(=O)[C@H](CC(=O)O)NC(=O)[C@H](CC2CCOCC2)NC(=O)[C@H](CCCCN)NC(=O)CNC(=O)[C@H](C(C)C)NC1=O [compound 361, Ac-hLeu-Y-NMeCys-V-G-K-ThpA-D-V-Y-C-5FW-F-Thr-dLys(DOTA)-COOH] (Ac-[hLeu]Y[NMeC]VGK[Ala(4-THP)]DVYC[Trp(5-F)]FT[dK](DOTA)-OH; disulfide 3-11)"

# Same assay, conditions: SPR KD—37° C., 4Ig B7-H3; 37° C. flow cell temperature
row,Compound,Kd [nM]
1,"CC(=O)N[C@@H](CCC(C)C)C(=O)N[C@@H](Cc1ccc(O)cc1)C(=O)N[C@H]1CSSC[C@@H](C(=O)N[C@@H](Cc2c[nH]c3ccc(F)cc23)C(=O)N[C@@H](Cc2ccccc2)C(=O)N[C@H](C(=O)N[C@H](CCCCNC(=O)CN2CCN(CC(=O)O)CCN(CC(=O)O)CCN(CC(=O)O)CC2)C(=O)O)C(C)(C)O)NC(=O)[C@H](Cc2ccc(O)cc2)NC(=O)[C@H](C(C)C)NC(=O)[C@H](CC(=O)O)NC(=O)[C@H](CC2CCOCC2)NC(=O)[C@H](CCCCN)NC(=O)CN(C)C(=O)[C@H](C(C)C)NC1=O [compound 347, Ac-hLeu-Y-C-V-Sar-K-ThpA-D-V-Y-C-5FW-F-hydroxyVal-dLys(DOTA)-COOH] (Ac-[hLeu]YCV[Sar]K[Ala(4-THP)]DVYC[Trp(5-F)]F[Val(3-OH)][dK](DOTA)-OH; disulfide 3-11)",< 1
2,"CC(=O)N[C@@H](CCC(C)C)C(=O)N[C@@H](Cc1ccc(O)cc1)C(=O)N[C@H]1CSSC[C@@H](C(=O)N[C@@H](Cc2c[nH]c3ccc(F)cc23)C(=O)N[C@@H](Cc2ccccc2)C(=O)N[C@H](C(=O)N[C@H](CCCCNC(=O)CN2CCN(CC(=O)O)CCN(CC(=O)O)CCN(CC(=O)O)CC2)C(=O)O)C(C)(C)O)NC(=O)[C@H](Cc2ccc(O)cc2)NC(=O)[C@H](C(C)C)NC(=O)[C@H](CC(=O)O)NC(=O)[C@H](CC2CCOCC2)NC(=O)[C@@H]2CCCN2C(=O)CNC(=O)[C@H](C(C)(C)C)NC1=O [compound 349, Ac-hLeu-Y-C-Tbg-G-Pro-ThpA-D-V-Y-C-5FW-F-hydroxyVal-dLys(DOTA)-COOH] (Ac-[hLeu]YC[Tle]GP[Ala(4-THP)]DVYC[Trp(5-F)]F[Val(3-OH)][dK](DOTA)-OH; disulfide 3-11)",10 to 100
3,"CC(=O)N[C@@H](CCC(C)C)C(=O)N[C@@H](Cc1ccc(O)cc1)C(=O)N[C@H]1CSSC[C@@H](C(=O)N[C@@H](Cc2c[nH]c3ccc(F)cc23)C(=O)N[C@@H](Cc2ccccc2)C(=O)N[C@H](C(=O)N[C@H](CCCCNC(=O)CN2CCN(CC(=O)O)CCN(CC(=O)O)CCN(CC(=O)O)CC2)C(=O)O)C(C)(C)O)NC(=O)[C@H](Cc2ccc(O)cc2)NC(=O)[C@H](C(C)C)NC(=O)[C@H](CC(=O)O)NC(=O)[C@H](CC2CCOCC2)NC(=O)[C@@H]2CCCCN2C(=O)CNC(=O)[C@H](C(C)(C)C)NC1=O [compound 350, Ac-hLeu-Y-C-Tbg-G-Pip-ThpA-D-V-Y-C-5FW-F-hydroxyVal-dLys(DOTA)-COOH] (Ac-[hLeu]YC[Tle]G[Pip][Ala(4-THP)]DVYC[Trp(5-F)]F[Val(3-OH)][dK](DOTA)-OH; disulfide 3-11)",10 to 100

# Continued, values first:
row,Kd [nM],Compound
1,10 to 100,"CC(=O)N[C@@H](CCC(C)C)C(=O)N[C@@H](Cc1ccc(O)cc1)C(=O)N[C@H]1CSSC[C@@H](C(=O)N[C@@H](Cc2c[nH]c3ccc(F)cc23)C(=O)N[C@@H](Cc2ccccc2)C(=O)N[C@H](C(=O)O)C(C)(C)O)NC(=O)[C@H](Cc2ccc(O)cc2)NC(=O)[C@H](C(C)C)NC(=O)[C@H](CC(=O)O)NC(=O)[C@H](CC2CCN(CC(=O)O)CC2)NC(=O)[C@H](CCCCNC(=O)CN2CCN(CC(=O)O)CCN(CC(=O)O)CCN(CC(=O)O)CC2)NC(=O)CNC(=O)[C@H](C(C)(C)C)NC1=O [compound 343, Ac-hLeu-Y-C-Tbg-G-Lys(DOTA)-Pip(CH2COOH)Ala-D-V-Y-C-5FW-F-hydroxyVal-COOH] (Ac-[hLeu]YC[Tle]GK(DOTA)[Ala(1-CH2CO2H-4-piperidyl)]DVYC[Trp(5-F)]F[Val(3-OH)]-OH; disulfide 3-11)"
2,10 to 100,"CC(C)CC[C@H](NC(=O)CCOCCOCCOCCOCCOCCOCCOCCOCCNC(=O)CCCc1ccc(I)cc1)C(=O)N[C@@H](Cc1ccc(O)cc1)C(=O)N[C@H]1CSSC[C@@H](C(=O)N[C@@H](Cc2c[nH]c3ccc(F)cc23)C(=O)N[C@@H](Cc2ccccc2)C(=O)N[C@H](C(=O)N[C@H](CCCCNC(=O)CN2CCN(CC(=O)O)CCN(CC(=O)O)CCN(CC(=O)O)CC2)C(=O)O)C(C)(C)O)NC(=O)[C@H](Cc2ccc(O)cc2)NC(=O)[C@H](C(C)C)NC(=O)[C@H](CC(=O)O)NC(=O)[C@H](CC2CCOCC2)NC(=O)[C@H](CCCCN)NC(=O)CNC(=O)[C@H](C(C)(C)C)NC1=O [compound 365, AB-PEG8-hLeu-Y-C-Tbg-G-K-ThpA-D-V-Y-C-5FW-F-hydroxyVal-dLys(DOTA)-COOH] ({Butanoyl(4-(4-I-phenyl))-PEG8}-[hLeu]YC[Tle]GK[Ala(4-THP)]DVYC[Trp(5-F)]F[Val(3-OH)][dK](DOTA)-OH; disulfide 3-11)"
